Where a SMILES comes first, the peptide text is derived from it. Bridges are numbered along the chain shown (N, C = ends).
Test system: TRPV1
Assay: Infrared laser-induced heat activation, inside-out patch
Format: cell-based
Protocol: The experimental set-up for rapidly heating cell membrane containing expressed TRPV1 channels was described in a previous report. Electrophysiological recordings were done in the inside-out mode. Toxin was added in the pipette solution. Laser light of 1,443 nm was generated by a laser diode (Fitel) driven by a controller (Thorlabs). The maximal optic output power of the laser was 250 mW. The laser light was transmitted to the voltage-clamped cell membrane through a single-mode optical fibre (125 μm outer diameter, 10 μm light-conducting core diameter), with the patch pipette tip placed in front of the centre of the optical fibre. Light energy was absorbed by water and converted to heat to drive channel activation. To calibrate the laser heating system, the relationship between laser driving power and temperature was tabulated as previously described. Briefly, a glass pipette was filled with a solution distinct from the bath solution and was centred at the end of the optical fibre. The laser driving power was adjusted to produce junction potential values matching those measured in the same solutions at different temperatures.

In the case of CC[C@H](C)[C@H](NC(=O)[C@@H]1CSSC[C@@H]2NC(=O)[C@H]([C@@H](C)O)NC(=O)[C@H](C(C)C)NC(=O)CNC(=O)[C@H](CC(N)=O)NC(=O)[C@@H](NC(=O)[C@@H]3CCCN3C(=O)[C@H](CC(N)=O)NC(=O)[C@H](CC(N)=O)NC(=O)[C@@H](N)CC(C)C)CSSC[C@H](NC(=O)[C@H](CCCNC(=N)N)NC(=O)[C@H](Cc3ccc(O)cc3)NC(=O)CNC(=O)[C@H](CO)NC(=O)[C@@H]3CCCN3C2=O)C(=O)N[C@@H](CO)C(=O)N[C@@H]([C@@H](C)CC)C(=O)N[C@@H](C(C)C)C(=O)N[C@@H](CC(=O)O)C(=O)N[C@@H](CCCCN)C(=O)N[C@@H](CCC(N)=O)C(=O)N1)C(=O)N[C@@H](CCCCN)C(=O)N[C@@H](CCCCN)C(=O)N[C@@H](CCC(=O)O)C(=O)O [RhTx] (H-LNNPCNGVTCPSGYRCSIVDKQCIKKE-OH; disulfide 5-16, 10-23; N-terminus and C-terminus assumed), the “effect on infrared laser-induced heat activation, 50 nM” value (RhTx at 50 nM in pipette, inside-out patch, +80 mV) is reported as “substantially potentiated”, the “lowering of the activation threshold temperature” value (RhTx at 100 nM) is reported as 6 °C and the “effect on infrared laser-induced heat activation, 100 nM” value (RhTx at 100 nM in pipette, inside-out patch, +80 mV) is reported as “substantially potentiated”.
